As a reminder, the EC50 is the concentration needed to bring the measured effect to its halfway point. The AC50 is the concentration at which the activity in the assay is half-maximal. In general, IC50 refers to the concentration that inhibits the measured activity by half. As a reminder, the CC50 is the concentration at which the toxic effect on the cells reaches its halfway point.

The values that follow come from ChEMBL document CHEMBL1201862, “PubChem BioAssay data set” (2004).

Activity calls are given as the source filed them.

Experiment [1] can be described thus: Luminescence Cell-Based Dose Confirmation to Identify Activators of 5'UTR Stem-Loop Driven Alpha-Synuclein mRNA Translation in H4 Neuroglioblastoma Cells. [Related pubchem assays: 1829 (Project Summary), 1814 (Primary HTS)]. It is filed as functional.
Experiment [2] can be described thus: Luminescence Cell-Based Dose Response to Identify Activators of Luciferase Translation or Activity in H4-C Neuroglioblastoma Cells. [Related pubchem assays: 1829 (Project Summary), 1814 (Primary HTS)]. It is filed as functional.
The subject of experiment [3] is H4. The experiment is described as follows: Luminescence Cell-Based Dose Response HTS to Identify Activators of 5'UTR Stem-Loop Driven Prion Protein mRNA Translation in H4 Neuroglioblastoma Cells. [Related pubchem assays: 1829 (Project Summary), 1814 (Primary HTS)]. It is filed as functional. Particulars: Homo sapiens.
Experiment [4] can be described thus: Luminescence Cell-Based Dose Response HTS to Identify Activators of Luciferase Translation or Activity in H4 […] Cells. [Related pubchem assays: 1829 (Project Summary), 1814 (Primary HTS)]. It is filed as functional.
Experiment [5] can be described thus: Luminescence Cell-Based Dose Response to Identify Activators of 5'UTR Stem-Loop Driven Prion Protein mRNA Translation in H4-C Neuroglioblastoma Cells. [Related pubchem assays: 1829 (Project Summary), 1814 (Primary HTS)]. It is filed as functional.
The nature of experiment [6]: growth inhibition of PfATP4-mutant resistant parasites – NITD609-resistant line, SYBR Green, dry powder, dose response (AID 1159571).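 Further: parasites synchronized at ring stage by sorbitol before testing.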 It is filed as functional, cell-based.
Experiment [7] in a line: toxicity to human HepG2 hepatoma cells – cell-based, plate reader, dry powder samples, cytotoxicity control, dose response (AID 1159569).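 Further: inhibitor potency with signal falling toward the positive control level.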 It is filed as functional.
Experiment [8] is described as follows: Dd2 malaria parasite growth inhibition potency – SYBR Green, dry powder samples, dose response (AID 1159566).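 Further: potency for growth inhibition with lower SYBR green DNA signal.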 It is filed as functional, cell-based.
Experiment [9] in a line: growth inhibition of yeast DHODH-expressing 3D7 parasites – SYBR Green, dry powder samples, dose response (AID 1159570).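 Further: parasite growth measured after 72 hours of compound exposure.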 It is filed as functional, cell-based.
The target of experiment [10] is E3 ubiquitin-protein ligase Mdm2 (Homo sapiens, UniProt Q00987). The experiment is described as follows: MDM2-luc reporter signal enhancers, multi-concentration potency testing, MDM2 ubiquitin-protein ligase inhibitor program, whole-cell format, luminescence detection, 384-well microplate (AID 1394).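 Further: MDM2 E3 inhibitors raise luminescence so EC50 is for signal enhancement.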 It is filed as functional.
Experiment [11] addresses T1, Protein RecA (Mycobacterium tuberculosis, UniProt P9WHJ3).
T1 sequence (P9WHJ3 whole entry): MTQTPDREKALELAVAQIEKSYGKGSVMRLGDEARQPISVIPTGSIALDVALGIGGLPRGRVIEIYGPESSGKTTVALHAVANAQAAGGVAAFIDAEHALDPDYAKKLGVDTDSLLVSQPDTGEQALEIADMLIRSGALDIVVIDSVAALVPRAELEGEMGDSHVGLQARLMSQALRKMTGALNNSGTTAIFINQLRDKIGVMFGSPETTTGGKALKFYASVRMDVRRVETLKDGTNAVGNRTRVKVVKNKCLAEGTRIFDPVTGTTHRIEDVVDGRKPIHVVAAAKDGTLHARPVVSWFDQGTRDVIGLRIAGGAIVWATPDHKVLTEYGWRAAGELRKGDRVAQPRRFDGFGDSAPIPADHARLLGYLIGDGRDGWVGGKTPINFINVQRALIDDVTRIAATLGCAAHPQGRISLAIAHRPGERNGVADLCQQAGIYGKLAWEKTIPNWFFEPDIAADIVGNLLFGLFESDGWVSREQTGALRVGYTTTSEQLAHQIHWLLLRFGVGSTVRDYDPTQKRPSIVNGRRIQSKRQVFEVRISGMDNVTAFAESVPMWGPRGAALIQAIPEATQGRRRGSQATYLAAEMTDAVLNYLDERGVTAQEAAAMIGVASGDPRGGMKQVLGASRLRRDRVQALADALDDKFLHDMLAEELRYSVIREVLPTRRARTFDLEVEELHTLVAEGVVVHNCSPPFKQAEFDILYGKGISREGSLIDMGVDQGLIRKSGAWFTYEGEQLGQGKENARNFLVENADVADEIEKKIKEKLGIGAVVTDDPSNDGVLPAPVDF
The experiment is described as follows: Fluorescence Cell-Free Homogeneous Dose Retest to Identify Inhibitors of RecA-Intein Splicing Activity. [Related pubchem assays (depositor defined):AID2097, AID2223, AID489010, AID492950]. It is filed as functional.

Experiment [12] deals with T2, Aminopeptidase N (Plasmodium falciparum FcB1/Columbia, UniProt O96935).
T2 sequence (O96935 whole entry): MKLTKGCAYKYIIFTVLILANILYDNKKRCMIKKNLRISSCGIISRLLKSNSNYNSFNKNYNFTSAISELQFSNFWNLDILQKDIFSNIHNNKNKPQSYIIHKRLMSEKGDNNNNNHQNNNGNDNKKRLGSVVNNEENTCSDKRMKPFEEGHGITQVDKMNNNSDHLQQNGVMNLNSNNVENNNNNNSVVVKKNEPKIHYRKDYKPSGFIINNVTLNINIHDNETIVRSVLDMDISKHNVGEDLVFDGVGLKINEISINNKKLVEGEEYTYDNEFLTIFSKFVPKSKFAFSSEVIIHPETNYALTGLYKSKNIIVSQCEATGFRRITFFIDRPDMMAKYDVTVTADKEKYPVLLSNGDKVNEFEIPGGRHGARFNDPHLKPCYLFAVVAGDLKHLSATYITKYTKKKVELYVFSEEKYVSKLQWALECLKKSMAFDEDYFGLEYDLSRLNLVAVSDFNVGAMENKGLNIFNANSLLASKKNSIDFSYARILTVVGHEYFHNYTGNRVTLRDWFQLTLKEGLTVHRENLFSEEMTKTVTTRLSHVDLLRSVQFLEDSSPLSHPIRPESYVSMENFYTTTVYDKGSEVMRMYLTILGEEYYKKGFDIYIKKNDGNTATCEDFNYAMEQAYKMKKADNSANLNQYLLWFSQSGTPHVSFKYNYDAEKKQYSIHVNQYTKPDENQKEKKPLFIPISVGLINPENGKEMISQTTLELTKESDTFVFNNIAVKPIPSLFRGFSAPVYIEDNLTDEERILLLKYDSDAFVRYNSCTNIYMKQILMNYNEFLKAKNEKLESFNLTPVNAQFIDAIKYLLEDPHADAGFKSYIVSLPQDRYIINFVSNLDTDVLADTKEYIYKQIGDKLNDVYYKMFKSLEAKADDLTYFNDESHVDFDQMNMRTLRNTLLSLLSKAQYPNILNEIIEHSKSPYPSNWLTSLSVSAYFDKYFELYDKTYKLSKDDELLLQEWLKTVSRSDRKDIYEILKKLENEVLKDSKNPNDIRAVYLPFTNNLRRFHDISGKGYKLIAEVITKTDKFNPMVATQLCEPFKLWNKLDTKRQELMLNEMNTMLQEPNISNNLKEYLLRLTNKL
The experiment is described as follows: malaria alanyl aminopeptidase activity blockers – biochemical, fluorogenic H-Leu-NHMec substrate, 1536-well (AID 1445). Details: species or system Plasmodium falciparum 3D7, 3D7.

Experiment [13] addresses T3, Replicative DNA helicase DnaB (Mycobacterium tuberculosis, UniProt P9WMR3).
T3 sequence (P9WMR3 whole entry): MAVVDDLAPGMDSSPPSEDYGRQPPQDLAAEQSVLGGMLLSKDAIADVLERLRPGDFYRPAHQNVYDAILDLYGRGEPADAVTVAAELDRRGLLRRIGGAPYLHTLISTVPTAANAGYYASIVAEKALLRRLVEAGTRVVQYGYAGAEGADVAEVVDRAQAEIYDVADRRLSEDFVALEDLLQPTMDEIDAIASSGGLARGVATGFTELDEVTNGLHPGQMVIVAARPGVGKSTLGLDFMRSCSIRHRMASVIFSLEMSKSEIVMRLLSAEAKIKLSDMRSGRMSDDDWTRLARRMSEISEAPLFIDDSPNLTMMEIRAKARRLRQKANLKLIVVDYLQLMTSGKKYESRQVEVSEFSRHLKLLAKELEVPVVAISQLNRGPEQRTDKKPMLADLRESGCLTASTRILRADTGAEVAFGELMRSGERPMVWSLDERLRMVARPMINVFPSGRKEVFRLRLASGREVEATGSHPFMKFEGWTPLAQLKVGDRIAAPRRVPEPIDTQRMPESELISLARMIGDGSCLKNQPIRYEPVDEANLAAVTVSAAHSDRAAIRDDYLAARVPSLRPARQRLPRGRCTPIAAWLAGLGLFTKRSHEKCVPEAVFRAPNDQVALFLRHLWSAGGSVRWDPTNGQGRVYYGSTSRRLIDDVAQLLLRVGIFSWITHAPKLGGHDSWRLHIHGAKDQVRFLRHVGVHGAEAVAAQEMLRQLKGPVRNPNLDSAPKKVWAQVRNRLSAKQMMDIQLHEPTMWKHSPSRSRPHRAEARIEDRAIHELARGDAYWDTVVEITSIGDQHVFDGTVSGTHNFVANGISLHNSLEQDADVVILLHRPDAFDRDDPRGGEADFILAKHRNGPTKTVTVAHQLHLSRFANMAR
The experiment is described as follows: DnaB intein splicing inhibitors, dose response, biochemical, cell-free fluorescence (AID 449749). It is filed as functional.

Experiment [14] in a line: NIH-3T3 fibroblast cytotoxicity, dose response, cytotoxicity control, cell-based, fluorescence, Alamar Blue, secondary assay (AID 2327).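 Further: NIH-3T3 mouse fibroblasts cultured with fluconazole at 8 µg/mL.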 It is filed as functional. For orientation: Resazurin is reduced to fluorescent resorufin, in cell work by metabolically active cells.
The nature of experiment [15]: fluconazole-exposed Candida albicans growth modulators – fluorescence, retest, confirmation (AID 2467). It is filed as functional, cell-based.
Experiment [16] addresses T4, Caspase-6 (Homo sapiens, UniProt P55212).
T4 sequence (P55212 whole entry): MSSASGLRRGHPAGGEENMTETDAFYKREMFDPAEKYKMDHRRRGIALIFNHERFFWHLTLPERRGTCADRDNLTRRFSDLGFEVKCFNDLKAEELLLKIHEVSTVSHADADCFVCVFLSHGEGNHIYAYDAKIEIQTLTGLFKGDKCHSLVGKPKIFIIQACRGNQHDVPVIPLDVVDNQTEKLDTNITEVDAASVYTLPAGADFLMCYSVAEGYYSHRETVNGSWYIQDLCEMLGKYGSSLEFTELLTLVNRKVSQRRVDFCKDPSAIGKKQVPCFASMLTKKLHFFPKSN
The experiment is described as follows: inhibition of CASP6 peptide cleavage – biochemical, VEID-R110 fluorescence, cherry-pick, dose response (AID 720632).

A short description of experiment [17]: viability loss in THP-1 monocytes – THP-1 cells, cytotoxicity control for Vif-APOBEC3G degradation inhibitor project, dose response (AID 1117359). It is filed as functional. Particulars: THP-1.
The nature of experiment [18]: P. falciparum Dd2 growth inhibitors, dose response, SYBR Green, cherry-picked samples (AID 1159567). It is filed as functional, cell-based.

E3 ubiquitin-protein ligase Mdm2, sequence (Q00987 whole entry): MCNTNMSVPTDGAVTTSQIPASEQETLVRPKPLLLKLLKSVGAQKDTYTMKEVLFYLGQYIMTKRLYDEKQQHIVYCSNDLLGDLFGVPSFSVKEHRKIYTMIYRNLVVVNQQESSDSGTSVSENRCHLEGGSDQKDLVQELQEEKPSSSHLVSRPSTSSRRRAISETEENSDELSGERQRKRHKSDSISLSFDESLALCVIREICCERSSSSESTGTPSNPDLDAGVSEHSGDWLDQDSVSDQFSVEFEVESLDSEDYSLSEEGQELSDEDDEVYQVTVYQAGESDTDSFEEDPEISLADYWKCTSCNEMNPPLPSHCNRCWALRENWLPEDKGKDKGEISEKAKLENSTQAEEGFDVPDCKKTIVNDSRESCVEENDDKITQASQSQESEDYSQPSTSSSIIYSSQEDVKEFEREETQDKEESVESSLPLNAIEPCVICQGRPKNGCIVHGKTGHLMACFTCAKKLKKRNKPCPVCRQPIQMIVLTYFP

With `CC(C)(C)c1ccc(C(=O)NC(=S)N2CCOCC2)cc1`, the EC50 in experiment [1] is 2.81 µM (active); in experiment [2], > 12 µM (not active); in [3], 0.111 µM (active); in [4] it was 0.61 µM (active); in [5] it was 0.418 µM (active).
On to `C[C@H]1CN([C@@H](C)CO)S(=O)(=O)c2ccc(C#Cc3ccncc3)cc2O[C@@H]1CN(C)S(=O)(=O)c1ccccc1`, for which the AC50 was 3.53 µM (active) in [6], > 100 µM (inactive) in experiment [7], 4.05 µM (active) in [8] and 3 µM (active) in [9].
`COc1ccc(C)cc1C1=Nc2ccccc2C1(C)C`: the EC50 in [10] was 15.4 µM (not active).
On the same count and under the same terms, the result for `O=C(N/N=C\c1ccc(Cl)s1)c1cccs1` reads 6.96 µM (not active).
As to `Cc1ccc(C(=O)c2coc3cc([N+](=O)[O-])c(O)c([N+](=O)[O-])c23)cc1`, the EC50 in experiment [11] was 9.46 µM (active); in experiment [14] it was > 160 µM (inactive); in experiment [15], > 38 µM (not active). For the same compound, the half-maximal inhibitory concentration (IC50) in experiment [12] is 32.1 µM (active). In addition, the half-maximal activity concentration (AC50) in experiment [13] was 24.4 µM (active); in experiment [16], 28.8 µM (active).
Turning to `Cc1ccc(NC(=O)C(=O)c2c(-c3ccccc3)cc3ccccn23)cc1S(=O)(=O)N1CCOCC1`, the CC50 in experiment [17] was > 40 µM (active).
`Cc1nc2cc(NC(=O)CCS(=O)(=O)c3ccccc3)ccc2s1`: the EC50 was 0.069 µM (active) in [1], 0.264 µM (active) in experiment [2], < 0.1 µM (inconclusive) in [4] and 0.312 µM (active) in [5].
In the case of `COc1ccc2c3c(n(C)c2c1)[C@H](CO)N(C(=O)Nc1ccc(F)cc1)CC31CCN(S(=O)(=O)c2cccc(F)c2)CC1`, the AC50 in [6] was 1.56 µM (active); in [7] it was > 100 µM (inactive); in experiment [8], 0.951 µM (active); in [9], 1.63 µM (active); in [18], 1.19 µM (active).
